Data set [1] deals with unphosphorylated STAT3 monomer (uSTAT3) SH2 domain (Homo sapiens, UniProt P40763). As to the kind of experiment: Fluorescence polarisation assay for the inhibition of STAT3 dimerisation. In kind it is binding. Conditions: 350 nM uSTAT3, 10 nM FAM-pYLPQTV, 100 μM ligand; average of triplicate. From the text: Fluorescence Polarisation Assay for the Inhibition of STAT3 Dimerisation
The compounds were subjected to an in vitro fluorescent polarisation (FP)-based primary PPI binding screen to assess their ability to inhibit STAT3 dimerisation by interacting with the SH2 domain. In this FP assay, the unphosphorylated STAT3 monomer (uSTAT3) and a surrogate peptide FAM-pYLPQTV were used to form a ‘pseudo-dimer’. The assay is based on the concept that the compounds were expected to displace the surrogate peptide from the uSTAT3 resulting in a fluorescent read out.
Specifically, for the FP assay, a black (CORNING™) 96 well plate was thoroughly washed with distilled water and allowed to dry. A 100 nM FAM-pYLPQTV working solution was prepared from 10 μM FAM-pYLPQTV stock solution (in DMSO) using PBS pH 7.4 Buffer. 10 μl FAM-pYLPQTV was added to 350 nM uSTAT3 protein, the final concentration of protein in each well, in 90 μl PBS buffer pH 7.4. The MP value of the surrogate dimer complex was measured using a fluorescent plate reader (Envision™, Perkin Elmer™, USA), which provided the base MP value. The inhibitor solution was then added to the well and the assay plate was placed on a shaker for 5 minutes. The MP value for each well was then measured again. A shift in fluorescent values was observed due to displacement of the fluorescently-labelled surrogate peptide by the inhibitors, and the average inhibition for each inhibitor could be calculated as described below:
Base MP value (X) for each well=MP value of Protein and Probe (350 nm STAT3+10 nM FAM-pYLPQTV)−MP value of free FAM-pYLPQTV
Inhibitor MP value (Y) for each well=MP value of Protein+Probe+Inhibitor (350 nm uSTAT3+10 nM FAM-pYLPQTV+2 μL Inhibitor)−MP value of free FAM-pYLPQTV with 2 μL DMSO
% inhibition by any ligand/peptide=(X−Y)/X*100
For comparison purpose, the % inhibition produced by 100 μM pYLKTKF was considered to be 100%, and the inhibition produced by different ligands was reported as relative to 100 μM pYLKTKF.
% Inhibition produced by 100 μM pYLKTKF=A
% Inhibition produced by 100 μM Ligand=B
Relative inhibition (%)=B/A*100
The experiment was carried out in triplicate, and average values were taken as the measure of PPI inhibition.
Background: Fluorescence polarisation rises when a labelled molecule tumbles more slowly, as on binding a larger partner.

Data set [2] relates to MDA-MB-231 breast (STAT3-dependent) cancer cell line. As to the kind of experiment: MTT cell viability assay, MDA-MB-231. Format: cell-based, human. Conditions: for IC50: Homo sapiens, MDA-MB-231, 48 h, MTT, 48 hours exposure (table title); for Selectivity ratio: STAT3-null A4 versus STAT3-dependent MDA-MB-231. The source says: (§1) MTT Cell viability assay with both MDA-MB-231 breast (STAT3-dependent) and A4 (STAT3-null) cancer cell lines.
(§2) After observing significant STAT3 dimerisation inhibitory activity in the preliminary FP assay, the target ligand and related fragments were progressed to an MTT cytotoxicity assay to evaluate in a STAT3-dependent tumour cell line (MDA MB 231, breast cancer) and a STAT3 null A4 cell line. It was anticipated that the compounds would show selective toxicity towards the STAT3-dependent MDA MB 231 cell line and would have lost activity in the STAT3 null A4 cell line if the mechanism of action was STAT3-mediated.
(§3) For each cell line, a total of 10,000 cells were seeded for 24 hours before addition of the inhibitors. The cells were grown in normal cell culture conditions at 37° C. under a 5% CO2 humidified atmosphere using an appropriate medium. The cell count was adjusted to 10^5 cells/ml, and 5,000-20,000 cells were added per well depending on the cell line. The cells were then incubated for 24 hours, and 1 μl aliquots of the inhibitors were added to the wells in triplicate. […] Absorbance was quantified by spectrophotometry at A=570 nm (Envision™ Plate Reader, PerkinElmer™, USA). IC50 values were calculated by a dose-response analysis using the Prism GraphPad Prism® software package.
(In general: Tetrazolium dyes change colour on reduction, which living cells bring about.)

For data set [3], the system named is A4 (STAT3-null) cancer cell line. The experiment in a line: MTT cell viability assay, A4. Conditions: exposure (table title). In kind it is cell-based.
Excerpt: as §1, §2, §3

The results in this text go back to US20200216432A1, “SULFONAMIDE DERIVATIVES AS STAT3 INHIBITORS FOR THE TREATMENT OF PROLIFERATIVE DISEASES” (King's College London, priority 2017, published 2020).

Square brackets hold non-standard residues; d marks the D form. Peptide text beside a SMILES is read from it. pY = N[C@@H](Cc1ccc(OP(=O)(O)O)cc1)C(=O)O

Sequence of unphosphorylated STAT3 monomer (uSTAT3) SH2 domain (P40763 whole entry, the tested form may be a part): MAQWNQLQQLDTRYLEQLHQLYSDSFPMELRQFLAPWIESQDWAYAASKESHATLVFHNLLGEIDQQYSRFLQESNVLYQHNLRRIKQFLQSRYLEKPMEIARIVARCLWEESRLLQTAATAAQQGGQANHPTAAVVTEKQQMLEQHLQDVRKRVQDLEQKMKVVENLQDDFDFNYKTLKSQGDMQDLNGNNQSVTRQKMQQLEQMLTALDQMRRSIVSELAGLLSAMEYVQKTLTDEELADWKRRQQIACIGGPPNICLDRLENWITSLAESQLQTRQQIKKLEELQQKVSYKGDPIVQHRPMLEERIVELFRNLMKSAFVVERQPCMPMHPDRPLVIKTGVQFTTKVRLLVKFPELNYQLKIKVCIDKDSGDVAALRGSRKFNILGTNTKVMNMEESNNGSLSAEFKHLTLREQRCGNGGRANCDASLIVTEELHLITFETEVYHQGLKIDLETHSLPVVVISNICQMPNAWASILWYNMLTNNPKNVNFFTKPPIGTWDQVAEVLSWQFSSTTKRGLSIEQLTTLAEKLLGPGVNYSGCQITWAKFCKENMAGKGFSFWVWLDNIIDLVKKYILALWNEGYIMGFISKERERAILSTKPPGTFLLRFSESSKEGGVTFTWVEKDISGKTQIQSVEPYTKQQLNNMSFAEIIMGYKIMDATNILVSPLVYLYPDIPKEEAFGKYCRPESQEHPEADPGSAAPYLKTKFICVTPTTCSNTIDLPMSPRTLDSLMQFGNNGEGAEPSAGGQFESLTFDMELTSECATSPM

As usually defined, the inhibition is the change of the read-out against control, counted positive when it falls. Read a low inhibition as a response near the control. As a reminder, the IC50 is the concentration needed to halve the response being measured. Lower therefore signals greater potency in that assay. `COC(=O)c1ccc(N(C)S(=O)(=O)c2cc(C(=O)Nc3ccc(OCCN4CCOCC4)cc3)sc2-c2ccc(N3CCOCC3)cc2)cc1` [Compound 9, methyl 4-((N-methyl-5-((4-(2-morpholinoethoxy)phenyl)carbamoyl)-2-(4-morpholinophenyl)thiophene)-3-sulfonamido)benzoate]: at 100 µM the inhibition in data set [1] was 54.1%. Also, in data set [2], the half-inhibitory concentration (IC50) was 2.88 µM and the Selectivity ratio turned out to be 31.21. In data set [3], this compound came in with an IC50 of 89.9 µM.

As to `COC(=O)c1ccc(N(C)S(=O)(=O)c2cc(C(=O)Nc3cccc(N4CCOCC4)c3)sc2Br)cc1` [Compound 22, methyl 4-((2-bromo-N-methyl-5-((3-morpholinophenyl)carbamoyl)thiophene)-3-sulfonamido)benzoate], the inhibition at 100 µM in data set [1] was 11.7%. Also, in data set [2], half-maximal inhibition (IC50) required 34.4 µM and the Selectivity ratio was 2.13. Besides, in data set [3], the IC50 was found to be 73.5 µM.

`COC(=O)c1ccc(N(C)S(=O)(=O)c2cc(C(=O)Nc3ccc4c(ccn4C)c3)sc2Br)cc1` [Compound 36, methyl 4-((2-bromo-N-methyl-5-((1-methyl-1H-indol-5-yl)carbamoyl)thiophene)-3-sulfonamido)benzoate] displayed an inhibition at 100 µM in data set [1] of 29.1%. In data set [2], the IC50 came to 7.8 µM and the Selectivity ratio came to 5.80. This compound also showed an IC50 in data set [3] of 45.3 µM.

In turn, `COC(=O)c1ccc(N(C)S(=O)(=O)c2cc(C(=O)NCc3ccc(CN4CCCCC4)cc3)sc2Br)cc1` [Compound 33, methyl 4-((2-bromo-N-methyl-5-((4-(piperidin-1-ylmethyl)benzyl)carbamoyl)thiophene)-3-sulfonamido)benzoate] showed an inhibition at 100 µM in data set [1] of 42.3%. Besides, in data set [2], the IC50 is 4.45 µM and the Selectivity ratio was found to be 21.16. In data set [3], this compound yielded a half-inhibitory concentration (IC50) of 94.2 µM.

With `COC(=O)c1ccc(N(C)S(=O)(=O)c2cc(C(=O)Nc3ccc(OCCN4CCOCC4)cc3)sc2-c2ccnc(N3CCN(C)CC3)c2)cc1` [Compound 13, methyl 4-((N-methyl-2-(2-(4-methylpiperazin-1-yl)pyridin-4-yl)-5-((4-(2-morpholinoethoxy)phenyl)carbamoyl)thiophene)-3-sulfonamido)benzoate], testing at 100 µM in data set [1] gave an inhibition of 56.2%. Moreover, in data set [2], 1.86 µM corresponded to half-maximal inhibition (IC50) and the Selectivity ratio is 40.01. Further, the concentration for half-maximal inhibition (IC50) in data set [3] amounted to 74.7 µM.

In turn, `C[C@@H]1CC(=O)c2c(ccc3c2C(=O)c2cccc(O)c2C3=O)C1` [STA-21, reference compound] yielded an inhibition at 100 µM in data set [1] of 32.3%. For the same compound, in data set [2], the half-inhibitory concentration (IC50) was 18.7 µM and the Selectivity ratio is 3.5. Further, the midpoint of inhibition in data set [3], the IC50, lay at 65.5 µM.

In data set [1], `COC(=O)c1ccc(N(C)S(=O)(=O)c2cc(C(=O)NCc3ccc(CN4CCCCC4)cc3)sc2-c2ccnc(N3CCN(C)CC3)c2)cc1` [Compound 5, methyl 4-((N-methyl-2-(2-(4-methylpiperazin-1-yl)pyridin-4-yl)-5-((4-(piperidin-1-ylmethyl)benzyl)carbamoyl)thiophene)-3-sulfonamido)benzoate] had an inhibition at 100 µM of 46.9%. Moreover, the IC50 came out at 2.43 µM in data set [2] and 57.4 µM in data set [3]. Further, the Selectivity ratio in data set [2] is on record as 23.62.

In the case of `COC(=O)c1ccc(N(C)S(=O)(=O)c2cc(C(=O)Nc3ccc4c(ccn4Cc4ccccc4)c3)sc2-c2ccc(N3CCCCC3)cc2)cc1` [Compound 20, methyl 4-((5-((1-benzyl-1H-indol-5-yl)carbamoyl)-N-methyl-2-(4-(piperidin-1-yl)phenyl)thiophene)-3-sulfonamido)benzoate], at 100 µM the inhibition in data set [1] was 35.6%. In data set [2], the IC50 turned out to be 10.5 µM and the Selectivity ratio is given as 5.62. The IC50 in data set [3] turned out to be 58.8 µM.

Turning to `COC(=O)c1ccc(N(C)S(=O)(=O)c2cc(C(=O)Nc3ccc(OCCN4CCOCC4)cc3)sc2-c2ccc(N3CCN(C)CC3)nc2)cc1` [Compound 11, methyl 4-((N-methyl-2-(6-(4-methylpiperazin-1-yl)pyridin-3-yl)-5-((4-(2-morpholinoethoxy)phenyl)carbamoyl)thiophene)-3-sulfonamido)benzoate], the inhibition at 100 µM in data set [1] is 58.3%. The IC50 was 7.51 µM in data set [2] and 66.4 µM in data set [3]. In addition, in data set [2], the Selectivity ratio was found to be 8.84.

Compound `CC(C)C[C@H](NC(=O)[C@@H](N)Cc1ccc(OP(=O)(O)O)cc1)C(=O)N[C@@H](CCCCN)C(=O)N[C@H](C(=O)N[C@@H](CCCCN)C(=O)N[C@@H](Cc1ccccc1)C(=O)O)[C@@H](C)O` [pYLKTKF, reference compound] (H-[pY]LKTKF-OH) registered an inhibition at 100 µM in data set [1] of 41.6%. Also, the “cytotoxicity in the MTT assay” value in data set [2] (highest concentration (100 μM) evaluated) is “did not show any cytotoxicity”.

With `COC(=O)c1ccc(N(C)S(=O)(=O)c2cc(C(=O)NCc3ccc(CN4CCCCC4)cc3)sc2-c2ccc(N3CCOCC3)cc2)cc1` [Compound 1, methyl 4-((N-methyl-2-(4-morpholinophenyl)-5-((4-(piperidin-1-ylmethyl)benzyl)carbamoyl)thiophene)-3-sulfonamido)benzoate], the inhibition at 100 µM in data set [1] was determined as 59.4%. In addition, in data set [2], the IC50 amounted to 2.68 µM and the Selectivity ratio amounted to 28.13. The compound also displayed a concentration for half-maximal inhibition (IC50) in data set [3] of 75.4 µM.

In data set [1], `COC(=O)c1ccc(N(C)S(=O)(=O)c2cc(C(=O)Nc3ccc4c(ccn4Cc4ccccc4)c3)sc2Br)cc1` [Compound 40, methyl 4-((5-((1-benzyl-1H-indo1-5-yl)carbamoyl)-2-bromo-N-methylthiophene)-3-sulfonamido)benzoate] had an inhibition at 100 µM of 47.1%.

Take `COC(=O)c1ccc(NC(=O)c2cc(S(=O)(=O)N(C)c3ccc(C(=O)OC)cc3)c(Br)s2)cc1` [Compound 27, methyl 4-(5-bromo-4-(N-(4-(methoxycarbonyl)phenyl)-N-methylsulfamoyl)thiophene-2-carboxamido)benzoate]: in data set [1], the inhibition at 100 µM was determined as 20.3%. Also, in data set [2], the half-inhibitory concentration (IC50) amounted to 8.7 µM and the Selectivity ratio was found to be 6.70. The compound further came in with a concentration for half-maximal inhibition (IC50) in data set [3] of 58.3 µM.

In data set [1], `COC(=O)c1ccc(N(C)S(=O)(=O)c2cc(C(=O)NCc3ccc(N4CCOCC4)cc3)sc2Br)cc1` [Compound 24, methyl 4-((2-bromo-N-methyl-5-((4-morpholinobenzyl)carbamoyl)thiophene)-3-sulfonamido)benzoate] registered an inhibition at 100 µM of 9.42%. In data set [2], the IC50 worked out at 34.5 µM and the Selectivity ratio is 0.96. The compound further displayed an IC50 in data set [3] of 33.2 µM.

As for `COC(=O)c1ccc(N(C)S(=O)(=O)c2cc(C(=O)Nc3ccc(OCCN4CCOCC4)cc3)sc2-c2ccc(C(=O)N3CCN(C)CC3)cc2)cc1` [Compound 15, methyl 4-((N-methyl-2-(4-(4-methylpiperazine-1-carbonyl)phenyl)-5-((4-(2-morpholinoethoxy)phenyl)carbamoyl)thiophene)-3-sulfonamido)benzoate], 100 µM produced 40.6% inhibition in data set [1]. In addition, in data set [2], the IC50 turned out to be 10.1 µM and the Selectivity ratio is 8.45. The compound also had a half-inhibitory concentration (IC50) in data set [3] of 84.5 µM.

For the compound `COC(=O)c1ccc(N(C)S(=O)(=O)c2cc(C(=O)NCc3ccc(N4CCCCC4)cc3)sc2Br)cc1` [Compound 26, methyl 4-((2-bromo-N-methyl-5-((4-(piperidin-1-yl)benzyl)carbamoyl)thiophene)-3-sulfonamido)benzoate], in data set [1], the inhibition at 100 µM worked out at 8.24%. In addition, in data set [2], the midpoint of inhibition, the IC50, lay at 14.5 µM and the Selectivity ratio is 1.77. Besides, half-maximal inhibition in data set [3] (IC50) was put at 25.8 µM.
